Measured values from patent US20210246505A1, “COMPOSITIONS & METHODS FOR MONITORING DNA REPAIR” (MEMORIAL SLOAN KETTERING CANCER CENTER, priority 2018, published 2021).

Legend:
Type in all cases: cell-based, human
[1] = tested on: HEK293T cells; assay: DSBR-seq of a Cas9 break at the AAVS1 locus, HEK293T cells
From the text: In this Example, transfection of the pX330 plasmid, containing the Cas9 and guide RNA (gRNA) expression cassettes to the AAVS1 safe locus, is used. Genomic DNA (gDNA) is collected 3 days post-transfection. To asses—DNA repair by HR, a donor template containing three substitutions around the protospacer adjacent motif (PAM) which limits cut-recut cycles is transfected also. A 500 bp amplicon surrounding the break is used for rapid measurement of DSBR errors via the widely used T7 endonuclease I assay. A 201 bp amplicon surrounding the cut site, but outside of the HR template is amplified, purified via E-gel electrophoresis system, converted into Illumina sequencing libraries, quantified via qPCR, and then sequenced at 200,000× read depth using paired end 150 bp (PE150) Mi-Seq. Unique, nonsingleton reads (occurring more than once) are aligned to the reference sequence using pairwise alignment (for example using Python). The indels and substitutions are cataloged relative to the break site and microhomology (MH) is determined (for example using an internally developed and validated algorithm, see FIG. 8). The reads are categorized as consequences of NHEJ (≤5 bp deletion) or MMEJ (>5 bp deletion with >2 bp MH). The donor template DNA contains key substitutions—thereby providing a readout of HR. These experiments are also performed in cells that are isogenic knockout controls of key NHEJ, MMEJ and HR components and using pharmacologic controls in which DNA-PKcs, RAD51, and PARP are inhibited […]. By comparing the experimental reads against those obtained from the knockout controls and/or pharmacologic controls, the specific reads dependent on each pathway were discovered. (FIG. 1). Thus, these methods involve empirically-determined deletion profiles, derived from known controls deficient in each pathway, as signatures to clearly separate and quantify DSBR events occurring by HR, NHEJ and MMEJ. The single double strand break allows for direct analysis of pathway choice in a native genomic location with a blunt-ended DSB. Because both cell cycle dependent pathways (MMEJ and […]) are measured in the same experiment, there is an effective built-in control for confounding cell cycle effects on the use of these pathways. The AAVS1 genomic location was chosen due to its characterization as a safe site of integration without any known phenotypic effects. Transfection of the pX330 plasmid, containing the Cas9 and gRNA expression cassettes, is performed by nucleofection or liposome-based techniques. To detect DNA repair by homologous recombination (HR), a donor template is used containing three substitutions, one on the gRNA side of the break and two on the other side of the break, destroying the protospacer adjacent motif (PAM) and thereby limiting cut-recut cycles. A 500 bp amplicon surrounding the break is used for rapid measurement of DSBR errors via the widely used T7 endonuclease I assay. A 201 bp amplicon surrounding the cut site, but outside of the HR template is amplified, purified via E-gel electrophoresis system, converted into Illumina sequencing libraries, quantified via qPCR, and then sequenced at 200,000× read depth. Paired end 150 bp (PE150) reads are obtained, affording a central 100 bp region of high sequence fidelity adjacent to the cut site. The PE150 reads are merged using PEAR and then condensed into a set of unique reads. Unique reads that only occur once are discarded, as they are likely low-quality reads due to sequencing error. These unique, nonsingleton reads are aligned to the reference sequence using pairwise alignment through Python. The indels and substitutions are cataloged relative to the breaksite. […] The profile of deletion sizes and extent of microhomology differs between break sites, likely owing to site dependent availability of microhomology. We utilized the DNA-PKcs inhibitor NU7441 to measure NHEJ inhibition. […]

[2] = tested on: HAP1 cells; assay: DSBR-seq of a Cas9 break at the AAVS1 locus, HAP1 cells
From the text: (§1) In this Example, transfection of the pX330 plasmid, containing the Cas9 and guide RNA (gRNA) expression cassettes to the AAVS1 safe locus, is used. Genomic DNA (gDNA) is collected 3 days post-transfection. To asses—DNA repair by HR, a donor template containing three substitutions around the protospacer adjacent motif (PAM) which limits cut-recut cycles is transfected also. A 500 bp amplicon surrounding the break is used for rapid measurement of DSBR errors via the widely used T7 endonuclease I assay. A 201 bp amplicon surrounding the cut site, but outside of the HR template is amplified, purified via E-gel electrophoresis system, converted into Illumina sequencing libraries, quantified via qPCR, and then sequenced at 200,000× read depth using paired end 150 bp (PE150) Mi-Seq. Unique, nonsingleton reads (occurring more than once) are aligned to the reference sequence using pairwise alignment (for example using Python). The indels and substitutions are cataloged relative to the break site and microhomology (MH) is determined (for example using an internally developed and validated algorithm, see FIG. 8). The reads are categorized as consequences of NHEJ (≤5 bp deletion) or MMEJ (>5 bp deletion with >2 bp MH). The donor template DNA contains key substitutions—thereby providing a readout of HR. […] The PE150 reads are merged using PEAR and then condensed into a set of unique reads. […]

[3] = tested on: HCC1937 BRCA1 deficient cell line; assay: DSBR-seq of a Cas9 break at the AAVS1 locus, HCC1937 BRCA1 deficient cells; details: with or without inhibitor
From the text: as §1

SMILES	12 base pair deletion with 5 bp of microhomology read ([1]; 293T cells)	specific 1 bp deletion read ([1]; 293T cells)	HR usage ([1]; FIG. 1I)	MMEJ usage ([1]; FIG. 1I)	NHEJ usage ([1]; FIG. 1I)	decrease of the amplitude of the deletion peak ([1]; HEK293T cells, DSB at position 120 of amplicon)	frequency of HR (donor substitution) peaks ([1]; HEK293T cells, donor template)	width of the deletion peak ([1]; HEK293T cells, reflects use of MMEJ)	12 base pair deletion with 5 bp of microhomology read ([2]; HAP1 cells)	HR observed [3]	increase of the frequency of introduced errors overall ([2]; G1 arrest by the drug) [fold]
O=c1cc(N2CCOCC2)oc2c(-c3cccc4c3sc3ccccc34)cccc12 [NU7441]	enhanced	suppressed	increases	increases	suppresses	more than 90%	increased in frequency	increases	enhanced	no HR is observed	
CC(=O)c1c(C)c2cnc(Nc3ccc(N4CCNCC4)cn3)nc2n(C2CCCC2)c1=O [palbociclib]											~4
